From US20250282753A1, “COMPOUNDS USEFUL FOR REDUCING URIC ACID” (ATOM BIOSCIENCE AMERICA CORPORATION, priority 2022, published 2025)

Assays:
[1] = cited from earlier work; for Sudden cardiac death, number of cases / Sudden cardiac death, share of group: per treatment group
[2] = allopurinol used at the maximum dose; cited from earlier work
[3] = cited from earlier work
[4] = system: potassium oxonate-induced hyperuricemic rats; assay: Serum uric acid in potassium oxonate-induced hyperuricemic rats, 3 days of gavage (Example 35); format: in vivo, SD rats
Method: Compound 13 was a light yellow powder, and compounds 38 and 41 are pseudo-white powders, which are triturated with 0.5% CMC-Na just prior to use to prepare a 0.4 mg/mL suspension for gavage.
36 male SD rats weighed approximately 220-240 g after one week of adaptation. […] The drugs in each group were prepared into a corresponding concentration suspension, and the administration volume was 0.5 mL/100 g.
After the rats in each group were purchased and adapted to feeding, they were fasted for 12 h, and, intraperitoneally, injected with⋅ potassium⋅ gxonate at a⋅dose of 300 mg/kg to establish the model. 0.5 h after modeling, each test drug group was gavaged once. The drug was administered continuously for 3 days. On day 3, blood samples was collected from the retro-orbital venous plexus before and 1, 3, and 5 h after potassium oxonate injection. The samples were centrifuged at 3500 rpm for 10 min, and 30 μL of serum was collected to determine the uric acid level at each time point.
The measurement data of each test were expressed as (mean)±standard deviation). The comparison between groups used ANOVA-Dunnett T test to examine the significance. P<0.05 was used as the significance index, and P<0.01 was used as the extremely significant index.

[5] = system: potassium oxonate-induced hyperuricemic rats; assay: Serum uric acid in potassium oxonate-induced hyperuricemic rats, single gavage (Example 34); format: in vivo, SD rats; conditions: for Uric acid 1 h / Uric acid 3 h / Uric acid 5 h / Uric acid 0 h: serum, mean ± SD; for Uric acid 1 h: 1 h after potassium oxonate injection; for Uric acid 3 h: 3 h after potassium oxonate injection; for Uric acid 5 h: 5 h after potassium oxonate injection; for Uric acid 0 h: before potassium oxonate injection
Method: 36 male SD rats weighed approximately 200-230 g after one week of adaptation. […] The drugs in each group were prepared into a corresponding concentration suspension, and the administration volume was 0.5 mL/100 g.
After the rats in each group were purchased and adapted to feeding, they were fasted for 12 h, and intraperitoneally injected with potassium oxonate at a dose of 300 mg/kg to establish the model. After 0.5 h of model establishment, each test drug group was gavaged once. Blood was collected from the retro-orbital venous plexus before and 1, 3, and 5 h after potassium oxonate injection. The samples were centrifuged at 3500 rpm for 10 min. 30 μL of serum was collected to determine the uric acid level at each time point.
The measurement data of each test were expressed as (mean)+standard deviation). The comparison between groups used ANOVA-Dunnett T test to examine the significance. P<0.05 was used as the significance index, and P<0.01 was used as the extremely significant index.

[6] = Febuxostat group vs allopurinol group

Oc1ncnc2[nH]ncc12 [allopurinol]
Sudden cardiac death, number of cases [1]: 56 cases | Sudden cardiac death, share of group [1]: 1.8% | rate of subjects reaching the treatment endpoint [2]: less than 50%

Pegloticase
patients experiencing severe immune allergic side effects ([3]; human, in vivo, iv): 20-40% | patients reaching the treatment endpoint of below 0.36 mmol/L ([3]; intravenous injection): 47%

Cc1nc(-c2ccc(OCC(C)C)c(C#N)c2)sc1C(=O)O [Febuxostat, reference compound]
increase in all-cause mortality [1, 6]: 22% | increase in cardiovascular mortality [1, 6]: 34% | all-cause mortality, HR ([1]; Febuxostat vs allopurinol group, 95% CI 1.01-1.47): 1.22 | cardiovascular mortality, HR ([1]; Febuxostat vs allopurinol group, 95% CI 1.03-1.73): 1.34 | overall risk of adverse cardiovascular events, HR ([1]; Febuxostat vs allopurinol group, average of 32 months of treatment, 95% CI 0.87-1.23): 1.03 | Sudden cardiac death, number of cases [1]: 83 cases | Sudden cardiac death, share of group [1]: 2.7% | serum uric acid level compared with the model group at the same time point ([4]; 2 mg/kg for 3 days, 1, 3, and 5 h after modeling, P<0.01): significantly reduce | Uric acid 0 h ([4]; serum, 2 mg/kg gavage for 3 days, day 3, 0 h, before potassium oxonate injection, mean ± SD, n=6): 39.2 ± 6.2 µmol/L | Uric acid 1 h ([4]; serum, 2 mg/kg gavage for 3 days, day 3, 1 h after potassium oxonate injection, mean ± SD): 34.4 ± 7.1 µmol/L | Uric acid 3 h ([4]; serum, 2 mg/kg gavage for 3 days, day 3, 3 h after potassium oxonate injection, mean ± SD): 31.2 ± 7.6 µmol/L | Uric acid 5 h ([4]; serum, 2 mg/kg gavage for 3 days, day 3, 5 h after potassium oxonate injection, mean ± SD): 24.7 ± 4.7 µmol/L | serum uric acid level compared with the model group at the same time point ([5]; 1 mg/kg and 2 mg/kg, 1, 3, and 5 h after modeling, P<0.01): significantly reduce | Uric acid 1 h ([5]; 1 mg/kg gavage once): 78.0 ± 17.5 µmol/L | Uric acid 3 h ([5]; 1 mg/kg gavage once): 63.3 ± 13.8 µmol/L | Uric acid 5 h ([5]; 1 mg/kg gavage once): 59.0 ± 9.8 µmol/L | Uric acid 1 h ([5]; 2 mg/kg gavage once): 40.6 ± 10.6 µmol/L | Uric acid 3 h ([5]; 2 mg/kg gavage once): 50.1 ± 10.7 µmol/L | Uric acid 5 h ([5]; 2 mg/kg gavage once): 61.4 ± 7.1 µmol/L

Cc1oc(=O)oc1COC(=O)c1ccnc(-c2ccc3c(c2)c(C#N)nn3C(C)C)c1 [Compound 22, (5-methyl-2-oxo-1,3-dioxol-4-yl)methyl 2-(3-cyano-1-isopropyl-1H-indazol-5-yl) isonicotinate]
serum uric acid level compared with the model group at the same time point ([5]; 1.45 mg/kg group, 1 h after modeling, P<0.05): significantly reduce | serum uric acid level compared with the model group at the same time point ([5]; 2.9 mg/kg group, 1 and 5 h after modeling, P<0.05): significantly reduce | Uric acid 0 h ([5]; 1.45 mg/kg gavage once): 64.0 ± 13.1 µmol/L | Uric acid 1 h ([5]; 1.45 mg/kg gavage once): 88.1 ± 17.8 µmol/L | Uric acid 3 h ([5]; 1.45 mg/kg gavage once): 86.5 ± 11.5 µmol/L | Uric acid 5 h ([5]; 1.45 mg/kg gavage once): 78.1 ± 11.1 µmol/L | Uric acid 0 h ([5]; 2.90 mg/kg gavage once): 66.4 ± 7.0 µmol/L | Uric acid 1 h ([5]; 2.90 mg/kg gavage once): 88.3 ± 11.9 µmol/L | Uric acid 3 h ([5]; 2.90 mg/kg gavage once): 77.1 ± 13.2 µmol/L | Uric acid 5 h ([5]; 2.90 mg/kg gavage once): 70.9 ± 6.3 µmol/L
